Measured values: publication PMC6107187, “A novel homodimer laccase from Cerrena unicolor BBP6: Purification, characterization, and potential in dye decolorization and denim bleaching” (PLoS ONE, 2018)
Like-named read-outs stand apart in the source and are kept apart here.

Columns and labels:
[1] = biological target: Cerrena unicolor BBP6 laccase (LacA) (Cerrena unicolor BBP6); assay: SEC; Superdex 200 Increase 10/300 GL, 10 mM phosphate buffer-140 mM NaCl (pH 7.4), 0.5 mL min^-1, room temperature; native mass compared with the subunit mass from SDS-PAGE
LacA [2] = conditions: optimal pH 2.5 and temperature 60°C; 5–100 μM ABTS; apparent Km
LacA [3] = assay: oxidation monitored at […] nm, Lineweaver-Burk; type: biochemical, Cerrena unicolor; conditions: optimal pH 4.0 and temperature 80°C; 0.5–5 mM guaiacol; apparent Km
LacA [4] = assay: oxidation monitored at […] nm, Lineweaver-Burk; type: biochemical, Cerrena unicolor; conditions: optimal pH 5.5 and temperature 80°C; 0.5–10 mM 2,6-DMP; apparent Km

Compound: Cerrena unicolor BBP6 laccase (LacA) (enzyme)
- stoichiometry N [1]: 2

Compound: CCn1c(=NN=c2sc3cc(S(=O)(=O)O)ccc3n2CC)sc2cc(S(=O)(=O)O)ccc21 [ABTS]
- Km (LacA [2]): 49.1 µM

Compound: COc1ccccc1O [guaiacol]
- Km (LacA [3]): 1240 µM

Compound: COc1cccc(OC)c1O [2,6-DMP]
- Km (LacA [4]): 3430 µM
